Article PMC7363588, “Mapping of the FGF14:Nav1.6 complex interface reveals FLPK as a functionally active peptide modulating excitability” (Physiological Reports, 2020)
“Also recorded” adds a separate entry of the source. Peptide text beside a SMILES is read from it.

Legend:
[1] = test system: FGF14^Y158A/V160A:Nav1.6 complex; experiment: LCA, CLuc-FGF14^Y158A/V160A; assay type: cell-based, human; settings: 50 µM peptide, 12 hr, HEK293, vs DMSO
[2] = molecular target: T1, Nav1.6 C-terminal tail (Homo sapiens, UniProt Q9UQD0); experiment: SPR binding to Nav1.6 C-terminal tail; settings: for koff, dissociation rate constant / kon, association rate constant: CM5, 25°C, 1–100 µM, RU 12,000, N.M. = not measurable; for binding to Nav1.6 C-terminal tail: peptide 1–100 µM
T1 construct: aa 1756–1939); 6X His (N); made in house; host or cells: E. coli BL21 (DE3) pLys
Text: Plasmids used in this study derived from the following clones: human FGF14‐1b isoform (accession number: NM_175929.2) and human Nav1.6 (accession number: NM_014191.3). The CLuc‐FGF14, CD4‐Nav1.6‐NLuc, constructs and the pcDNA3.1 vector (Invitrogen, Carlsbad, CA) were engineered and characterized as previously described (Goetz et al., 2009; Shavkunov et al., 2012,2013,2015; Ali et al., 2016, 2018; Wadsworth et al., 2019). The plasmid pGL3 expressing full length Firefly (Photinus pyralis) luciferase was a gift from Dr. P. Sarkar (Department of Neurology, UTMB). For protein purification studies, cDNAs encoding FGF14‐1b (accession number NP_787125; aa 64–252) or the C‐terminal tail of Nav1.6 (accession number #NP_001171455; aa 1756–1939) were subcloned into suitable pET bacterial expression vectors (pET28a‐FGF14; pET30a‐Nav1.6) with a 6X His‐tag at the N‐terminal site; these plasmids were a gift of Dr. Moosa Mohammadi (NYU, Langone Medical Center). The mutation coding for FGF14^V160A was generated by site‐directed mutagenesis and PCR using FGF14‐1b as a template described previously (Ali et al., 2016). For electrophysiological studies FGF14‐GFP (human) and FGF14‐ΔNT‐GFP (human) were cloned into the GFP plasmid (pQBI‐fC2; Quantum Biotechnology Inc., Montreal, Canada) as previously described.
Upon transformation with corresponding cDNA clones, the recombinant proteins FGF14, FGF14^V160A and Nav1.6 C‐terminal tail were expressed in E. coli BL21 (DE3) pLys (Invitrogen) after induction with 0.1 mM isopropyl thio‐β‐D‐galacto‐pyranoside (IPTG) for 24 hr at 16°C. After induction with IPTG, bacterial cells were harvested and lysed by sonication at 4°C in lysis/binding buffer containing following components (mM): sodium phosphate 10 (prepared from 0.5 M of Na2HPO4 and NaH2PO4) + 3‐cholamidopropyl dimethylammonio 1‐propanesulfonate 0.1% pH 7.0 (for FGF14 proteins) + HEPES 25 + NaCl 150 + glycerol 10% (Nav1.6) pH 7.5 and containing 0.1 mM phenyl methyl sulphonyl fluoride (PMSF). The respective proteins were centrifuged at 18,000 g for 30 min at 4°C. For purification of FGF14 and FGF14^V160A, the supernatant was applied to preequilibrated heparin and the proteins were then eluted with NaCl 0.2–2.0 M in the elution (sodium phosphate 10 mM + NaCl 0.2–2.0 M pH 7.0) buffer. For purification of the Nav1.6 C‐tail, the supernatant was applied first to Ni^2+ NTA column and eluted with imidazole (200 mM). The Nav1.6 C‐tail was further purified using HiTrap QFF‐sepharose column (GE Healthcare Bio‐Sciences, Pittsburgh, PA) with a buffer containing Tris‐HCl 50 mM and eluted with NaCl (10–500 mM) at pH 7.5. Finally, all concentrated proteins were purified on an AKTA FPLC purifier using Superdex 200 Hiload 16 × 60 columns (GE Healthcare Bio‐Sciences) and equilibrated in Tris‐HCl 50 mM + NaCl 150 mM, pH 7.5 (Ali et al., 2016; Scala et al., 2018).
SPR experiments were performed on a Biacore T100 (GE Healthcare Bio‐Sciences, Pittsburgh, PA), and the interaction of FGF14 and Nav1.6 channel toward FLPK, PLEV and EYYV (1–100 µM) were studied at 25°C. To analyze the effects of FLPK, PLEV and EYYV on FGF14^WT (RU 16,000), FGF14^V160A (RU 18,000) and Nav1.6 C‐tail (RU 12,000), the proteins were immobilized on CM5 sensor chip using Acetate 5.5 with Amine Coupling Kit (Biacore GE Healthcare Bio‐Sciences). No protein was coupled to the control flow channel of the chip. Using a flow rate of 50 µl/min, FLPK, PLEV and EYYV (1–100 µM) diluted in HBS‐P^+ buffer were injected over the chip for 180 s, followed by injection of HBS‐P+ for 180 s to monitor dissociation, and finally the chip surface was regenerated with NaCl (200 mM). For each peptide injection, nonspecific responses (buffer only) were subtracted from experimental sensograms/traces prior to data analysis. Maximal equilibrium responses were plotted against peptide concentrations and association rate constant (kon), dissociation rate constatnt (koff) were determined. […]

T1 sequence (Q9UQD0 1797-1980): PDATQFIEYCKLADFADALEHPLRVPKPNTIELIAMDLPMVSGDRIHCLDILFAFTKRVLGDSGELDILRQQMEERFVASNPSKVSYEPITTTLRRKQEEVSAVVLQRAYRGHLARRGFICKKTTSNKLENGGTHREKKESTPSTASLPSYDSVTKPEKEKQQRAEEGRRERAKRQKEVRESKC

Molecule	effect on FGF14^Y158A/V160A:Nav1.6 complex formation [1]	koff, dissociation rate constant [2]	kon, association rate constant [2]	binding to Nav1.6 C-terminal tail [2]
CC(=O)N[C@@H](Cc1ccccc1)C(=O)N[C@@H](CC(C)C)C(=O)N1CCC[C@H]1C(=O)N[C@@H](CCCCN)C(N)=O [FLPK] (Ac-FLPK-NH2)	prevented the effect of FLPK and EYYV; also recorded: abolished	N.M.	N.M.	no measurable binding
PLEV [tetrapeptide previously designed from FGF14:FGF14 dimer interface; docked with N-terminal acetylation and C-terminal amidation]	slight, but statistically significant increase; also recorded: not PLEV	N.M.	N.M.	no appreciable affinity to either protein was detected
EYYV [tetrapeptide previously designed from FGF14:FGF14 dimer interface; docked with N-terminal acetylation and C-terminal amidation]	prevented the effect of FLPK and EYYV; also recorded: abolished	N.M.	N.M.	no appreciable affinity to either protein was detected
